# Values joined by “and” are separate entries in the source; they are usually repeats but may differ in a detail not shown here. Identical values can stand only once. Like-named read-outs stand apart in the source and are kept apart here.
# Columns and labels:
# PI3K-α = PI3K-α (Homo sapiens, UniProt P42336); assay: PI3K-alpha fluorescence polarization assay; details: read-out: IC50 PI3Kα
# [1] = tested on: human breast MDA-MB-361 tumor cell line; assay: In vitro cell culture growth assay (MTS), MDA-MB-361; assay type: cell-based
# [2] = tested on: human prostate PC3-mm2 tumor cell line; assay: In vitro cell culture growth assay (MTS), PC3-mm2; assay type: cell-based
# PI3K-γ = PI3K-γ (Homo sapiens, UniProt P48736); assay: PI3K-gamma fluorescence polarization assay; details: read-out: IC50 PI3Kγ
# Human mTOR (FLAG-TOR) = Human mTOR (FLAG-TOR) (Homo sapiens, UniProt P42345); assay: mTOR kinase assay (DELFIA format, purified enzyme); assay type: biochemical
# [3] = Homo sapiens, MDA-MB-361, 72 h, MTS cell growth assay, three days after drug treatment, read-out: IC50 MDA-MB-361
# [4] = Homo sapiens, PC3MM2, 72 h, MTS cell growth assay, three days after drug treatment, read-out: IC50 PC3-mm2
# [5] = Homo sapiens, 72 h, MTS cell growth assay, three days after drug treatment, MDA-MB-361 cells, read-out: IC50 MDA-MB-361
# [6] = Homo sapiens, PC3MM2, 72 h, MTS cell growth assay, three days after drug treatment, PC3-mm2 cells, read-out: IC50 PC3-mm2
# [7] = Homo sapiens, MDA-MB-361, 72 h, read-out: IC50 MDA-MB-361
# [8] = Homo sapiens, PC3MM2, 72 h, read-out: IC50 PC3-mm2
# [9] = Homo sapiens, MDA-MB-361, 72 h, MTS cell growth assay, three days after drug treatment, MDA-MB-361 cells, read-out: IC50 MDA-MB-361
# [10] = MTS cell growth assay, three days after drug treatment, MDA-MB-361 cells, read-out: IC50 MDA-MB-361
# [11] = MTS cell growth assay, three days after drug treatment, PC3-mm2 cells, read-out: IC50 PC3-mm2
# Human mTOR (FLAG-TOR), sequence (P42345 1360-2549 limits assumed): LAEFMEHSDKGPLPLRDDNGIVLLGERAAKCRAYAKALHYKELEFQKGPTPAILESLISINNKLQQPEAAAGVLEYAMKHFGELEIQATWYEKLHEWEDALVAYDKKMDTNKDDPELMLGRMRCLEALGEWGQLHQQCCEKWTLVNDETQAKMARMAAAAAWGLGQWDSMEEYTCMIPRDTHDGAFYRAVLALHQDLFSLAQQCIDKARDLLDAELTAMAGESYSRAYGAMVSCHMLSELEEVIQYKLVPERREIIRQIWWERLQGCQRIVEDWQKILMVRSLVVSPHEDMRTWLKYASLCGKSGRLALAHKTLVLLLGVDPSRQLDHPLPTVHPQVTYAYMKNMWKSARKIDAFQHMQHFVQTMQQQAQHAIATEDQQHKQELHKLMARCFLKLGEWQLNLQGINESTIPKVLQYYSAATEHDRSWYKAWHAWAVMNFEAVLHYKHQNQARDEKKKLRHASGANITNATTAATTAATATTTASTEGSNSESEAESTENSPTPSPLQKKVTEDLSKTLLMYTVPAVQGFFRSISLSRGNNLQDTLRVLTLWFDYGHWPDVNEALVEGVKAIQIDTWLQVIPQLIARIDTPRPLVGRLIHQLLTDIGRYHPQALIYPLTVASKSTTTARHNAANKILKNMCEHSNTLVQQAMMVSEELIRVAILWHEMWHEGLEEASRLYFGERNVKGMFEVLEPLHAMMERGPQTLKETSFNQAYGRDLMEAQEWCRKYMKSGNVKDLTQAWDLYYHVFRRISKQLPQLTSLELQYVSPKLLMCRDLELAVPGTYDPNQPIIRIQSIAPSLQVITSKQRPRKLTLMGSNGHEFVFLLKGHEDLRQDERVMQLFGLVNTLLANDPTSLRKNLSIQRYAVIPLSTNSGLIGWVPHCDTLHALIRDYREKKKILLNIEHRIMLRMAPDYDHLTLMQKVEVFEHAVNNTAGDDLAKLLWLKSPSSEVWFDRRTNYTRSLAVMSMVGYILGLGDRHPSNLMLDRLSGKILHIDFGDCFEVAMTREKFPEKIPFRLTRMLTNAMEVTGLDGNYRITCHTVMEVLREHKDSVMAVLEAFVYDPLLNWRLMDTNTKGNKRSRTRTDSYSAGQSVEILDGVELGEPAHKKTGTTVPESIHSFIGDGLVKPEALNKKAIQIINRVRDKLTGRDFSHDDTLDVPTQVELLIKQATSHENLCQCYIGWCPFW
# PI3K-γ, sequence (P48736 whole entry, species assumed): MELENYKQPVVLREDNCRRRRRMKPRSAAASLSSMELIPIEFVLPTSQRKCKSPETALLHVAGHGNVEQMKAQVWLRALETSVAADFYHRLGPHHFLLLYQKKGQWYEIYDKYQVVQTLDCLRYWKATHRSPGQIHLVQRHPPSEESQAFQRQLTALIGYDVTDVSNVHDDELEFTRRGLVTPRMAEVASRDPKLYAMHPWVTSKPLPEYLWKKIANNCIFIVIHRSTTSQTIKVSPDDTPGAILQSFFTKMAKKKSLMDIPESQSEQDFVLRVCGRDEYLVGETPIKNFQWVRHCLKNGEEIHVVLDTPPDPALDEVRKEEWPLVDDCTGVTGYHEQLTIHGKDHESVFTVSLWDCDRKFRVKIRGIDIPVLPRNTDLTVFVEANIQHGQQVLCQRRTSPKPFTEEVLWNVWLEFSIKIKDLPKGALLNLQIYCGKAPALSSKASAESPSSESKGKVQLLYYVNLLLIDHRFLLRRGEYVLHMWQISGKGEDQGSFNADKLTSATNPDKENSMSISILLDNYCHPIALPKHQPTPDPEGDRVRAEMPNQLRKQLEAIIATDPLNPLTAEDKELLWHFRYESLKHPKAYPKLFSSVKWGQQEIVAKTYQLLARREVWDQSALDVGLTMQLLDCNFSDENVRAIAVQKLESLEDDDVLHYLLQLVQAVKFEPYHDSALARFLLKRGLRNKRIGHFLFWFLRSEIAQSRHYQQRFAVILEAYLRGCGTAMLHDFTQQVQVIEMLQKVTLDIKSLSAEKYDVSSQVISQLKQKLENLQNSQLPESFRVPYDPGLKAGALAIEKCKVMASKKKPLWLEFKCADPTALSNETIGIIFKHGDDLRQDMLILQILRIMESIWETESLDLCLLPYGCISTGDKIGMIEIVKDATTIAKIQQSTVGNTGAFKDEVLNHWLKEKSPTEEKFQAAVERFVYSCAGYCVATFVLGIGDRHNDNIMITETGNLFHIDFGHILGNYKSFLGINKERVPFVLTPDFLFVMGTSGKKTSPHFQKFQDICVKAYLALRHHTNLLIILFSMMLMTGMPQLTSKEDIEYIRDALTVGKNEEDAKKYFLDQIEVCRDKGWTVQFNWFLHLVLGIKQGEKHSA
# PI3K-α, sequence (P42336 whole entry, species assumed): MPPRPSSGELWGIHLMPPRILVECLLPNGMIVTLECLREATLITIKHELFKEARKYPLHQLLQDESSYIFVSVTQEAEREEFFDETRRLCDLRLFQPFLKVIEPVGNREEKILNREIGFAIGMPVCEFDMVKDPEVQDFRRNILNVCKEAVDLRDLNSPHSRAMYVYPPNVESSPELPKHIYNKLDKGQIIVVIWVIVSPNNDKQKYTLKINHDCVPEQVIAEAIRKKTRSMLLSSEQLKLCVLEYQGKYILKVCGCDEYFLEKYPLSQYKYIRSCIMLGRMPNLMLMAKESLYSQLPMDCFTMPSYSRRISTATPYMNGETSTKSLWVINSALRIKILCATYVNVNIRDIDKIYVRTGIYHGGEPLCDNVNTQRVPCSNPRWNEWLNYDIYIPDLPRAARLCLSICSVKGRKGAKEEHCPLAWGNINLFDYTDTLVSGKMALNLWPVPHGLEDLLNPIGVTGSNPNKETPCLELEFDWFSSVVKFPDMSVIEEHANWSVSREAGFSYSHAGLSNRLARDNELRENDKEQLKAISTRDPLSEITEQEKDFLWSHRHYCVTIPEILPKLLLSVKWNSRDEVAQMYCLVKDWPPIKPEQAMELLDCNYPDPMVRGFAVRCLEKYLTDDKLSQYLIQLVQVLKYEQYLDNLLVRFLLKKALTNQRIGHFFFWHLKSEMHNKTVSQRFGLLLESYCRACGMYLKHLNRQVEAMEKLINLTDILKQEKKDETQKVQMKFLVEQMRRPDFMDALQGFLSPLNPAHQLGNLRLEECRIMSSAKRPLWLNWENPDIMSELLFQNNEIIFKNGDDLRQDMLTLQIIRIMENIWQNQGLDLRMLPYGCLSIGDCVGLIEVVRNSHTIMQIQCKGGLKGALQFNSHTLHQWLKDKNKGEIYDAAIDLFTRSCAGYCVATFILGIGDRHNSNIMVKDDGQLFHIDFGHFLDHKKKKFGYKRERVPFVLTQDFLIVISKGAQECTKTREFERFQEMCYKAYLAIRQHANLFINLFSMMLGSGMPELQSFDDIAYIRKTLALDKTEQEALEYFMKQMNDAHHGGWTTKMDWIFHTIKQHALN
# PI3K-α, sequence (P27986 whole entry partner, species assumed): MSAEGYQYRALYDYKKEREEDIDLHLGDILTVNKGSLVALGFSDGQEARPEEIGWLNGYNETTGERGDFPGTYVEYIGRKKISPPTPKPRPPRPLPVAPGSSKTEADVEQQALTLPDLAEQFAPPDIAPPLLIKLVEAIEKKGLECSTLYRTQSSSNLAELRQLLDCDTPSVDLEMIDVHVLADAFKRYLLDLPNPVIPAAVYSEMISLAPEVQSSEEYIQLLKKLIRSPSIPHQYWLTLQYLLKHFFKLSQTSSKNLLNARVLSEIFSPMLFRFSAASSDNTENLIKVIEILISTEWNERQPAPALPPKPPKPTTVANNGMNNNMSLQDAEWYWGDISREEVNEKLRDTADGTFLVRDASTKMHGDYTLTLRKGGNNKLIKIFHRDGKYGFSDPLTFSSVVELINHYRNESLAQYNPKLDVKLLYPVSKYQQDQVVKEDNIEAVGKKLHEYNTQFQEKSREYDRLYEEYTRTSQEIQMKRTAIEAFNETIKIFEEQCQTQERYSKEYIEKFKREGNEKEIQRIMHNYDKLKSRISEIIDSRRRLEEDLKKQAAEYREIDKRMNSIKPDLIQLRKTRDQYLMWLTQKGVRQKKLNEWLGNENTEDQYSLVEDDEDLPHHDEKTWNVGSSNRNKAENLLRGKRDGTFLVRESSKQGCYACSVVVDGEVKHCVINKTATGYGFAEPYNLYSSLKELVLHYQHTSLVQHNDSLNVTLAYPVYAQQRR
IC50 (PI3K-α) [nM],"IC50 [1, 3] [nM]","IC50 [2, 4] [nM]",IC50 (PI3K-γ) [nM],"IC50 [2, 6] [nM]",IC50 (Human mTOR (FLAG-TOR); read-out: IC50 mTOR),Compound,further results
2,187,229,200,–,–,"CC(O)c1nc(-c2ccc(NC(=O)Nc3ccncc3)cc2)nc(N2CCOCC2)n1 (centres unmarked) [Example 223, 1-{4-[4-(1-hydroxyethyl)-6-morpholin-4-yl-1,3,5-triazin-2-yl]phenyl}-3-pyridin-4-ylurea]",–
43,–,–,89,< 31,–,"O=C(Nc1ccncc1)Nc1ccc(-c2nc(-c3ccccc3)nc(N3CCOCC3)n2)cc1 [Example 346, 1-[4-(4-morpholin-4-yl-6-phenyl-1,3,5-triazin-2-yl)phenyl]-3-pyridin-4-ylurea]","IC50 (PI3K-α; listed as 537): 43.5 nM; IC50 [1, 5]: < 31 nM"
0.5,–,–,1.8,12.5,–,"CCN1CCN(C(=O)Nc2ccc(NC(=O)Nc3ccc(-c4nc(N5CCOCC5)nc(N5CCOCC5)n4)cc3)cc2)CC1 [Example 503, N-[4-({[4-(4,6-dimorpholin-4-yl-1,3,5-triazin-2-yl)phenyl]carbamoyl}amino)phenyl]-4-ethylpiperazine-1-carboxamide]","IC50 [1, 5]: 7.5 nM"
21,–,–,108,168,–,"C[C@H]1COCCN1c1nc(-c2ccc(NC(=O)Nc3ccc(C(=O)N4CCCC4)cc3)cc2)nc(N2CCOC[C@@H]2C)n1 [Example 571, 1-(4-{4,6-bis[(3S)-3-methylmorpholin-4-yl]-1,3,5-triazin-2-yl}phenyl)-3-[4-(pyrrolidin-1-ylcarbonyl)phenyl]urea]","IC50 [1, 9]: 90 nM"
6,–,–,122,16,–,"C[C@@H]1COCCN1c1nc(-c2ccc(NC(=O)Nc3ccc(C(=O)NCCN(C)C)cc3)cc2)nc(N2CCOC[C@@H]2C)n1 [Example 634, N-[2-(dimethylamino)ethyl]-4-{[(4-{4-[(3R)-3-methylmorpholin-4-yl]-6-[(3S)-3-methylmorpholin-4-yl]-1,3,5-triazin-2-yl}phenyl)carbamoyl]amino}benzamide]","IC50 [1, 5]: 5 nM"
3,–,–,50.5,25,–,"C[C@H]1COCCN1c1nc(-c2ccc(NC(=O)Nc3ccc(C(=O)NCCN4CCCC4)cc3)cc2)nc(N2CCOCC2)n1 [Example 622, 4-{[(4-{4-[(3S)-3-methylmorpholin-4-yl]-6-morpholin-4-yl-1,3,5-triazin-2-yl}phenyl)carbamoyl]amino}-N-(2-pyrrolidin-1-ylethyl)benzamide]","IC50 [1, 5]: 5 nM"
0.9,–,–,15,56,–,"CN(C)CCNC(=O)c1ccc(NC(=O)Nc2ccc(-c3nc(N4CCCOCC4)nc(N4CCOCC4)n3)cc2)cc1 [Example 572, N-[2-(dimethylamino)ethyl]-4-[({4-[4-morpholin-4-yl-6-(1,4-oxazepan-4-yl)-1,3,5-triazin-2-yl]phenyl}carbamoyl)amino]benzamide]","IC50 [1, 5]: 13 nM"

# The next lines start with the compound.
Compound,IC50 (PI3K-α) [nM],"IC50 [1, 3] [nM]","IC50 [2, 4] [nM]",IC50 (PI3K-γ) [nM],"IC50 [2, 6] [nM]",IC50 (Human mTOR (FLAG-TOR); read-out: IC50 mTOR),further results
"CC(C)Oc1nc(-c2ccc(NC(=O)Nc3ccc(C(=O)NCCN(C)C)cc3)cc2)nc(N2CCOCC2)n1 [Example 187, N-[2-(dimethylamino)ethyl]-4-({[4-(4-isopropoxy-6-morpholin-4-yl-1,3,5-triazin-2-yl)phenyl]carbamoyl}amino)benzamide]",3,–,–,–,–,–,"IC50 [1, 7]: 11 nM; IC50 [2, 8]: 41 nM; IC50 (Human mTOR (FLAG-TOR); IC50 mTOR): 3.5 nM"
"CC(C)Oc1nc(-c2ccc(NC(=O)Nc3ccc(C(=O)NC4CCN(C)CC4)cc3)cc2)nc(N2CCOCC2)n1 [Example 97, 4-({[4-(4-isopropoxy-6-morpholin-4-yl-1,3,5-triazin-2-yl)phenyl]carbamoyl}amino)-N-(1-methylpiperidin-4-yl)benzamide]",–,–,–,–,–,1.1 nM and 1.2 nM,"IC50 [1, 7]: < 30 nM; IC50 [2, 8]: 52 nM"
"C[C@H]1COCCN1c1nc(-c2ccc(NC(=O)Nc3ccc(CO)cc3)cc2)nc(N2CCOCC2)n1 [Example 91, 1-[4-(2-hydroxymethyl)phenyl]-3-(4-{4-[(3S)-3-methylmorpholin-4-yl]-6-morpholin-4-yl-1,3,5-triazin-2-yl}phenyl)urea]",6,25,1570,73,–,–,–
"CCN(CC)C(=O)[n+]1ccc(NC(=O)Nc2ccc(-c3nc(N4CCOCC4)nc(N4C5CCC4COC5)n3)cc2)cc1 [Example 201, 1-(diethylcarbamoyl)-4-[({4-[4-morpholin-4-yl-6-(3-oxa-8-azabicyclo[3.2.1]oct-8-yl)-1,3,5-triazin-2-yl]phenyl}carbamoyl)amino]pyridinium]",–,29,44,–,44,0.9 nM,–
"O=C(Nc1ccc(-c2nc(N3CCOCC3)nc(N3CCOCC3)n2)cc1)Nc1cccs1 [Example 4, 1-[4-(4,6-dimorpholin-4-yl-1,3,5-triazin-2-yl)phenyl]-3-thiophen-2-ylurea]",–,45,43,–,–,1.7 nM,–
"COc1nc(-c2ccc(NC(=O)Nc3ccc(C(=O)N(C)CCN(C)C)cc3)cc2)nc(N2CCOCC2)n1 [Example 243, N-[2-(dimethylamino)ethyl]-4-({[4-(4-methoxy-6-morpholin-4-yl-1,3,5-triazin-2-yl)phenyl]carbamoyl}amino)-N-methylbenzamide]",1,–,–,–,–,–,"IC50 (PI3K-α; listed as 720): 0.4 nM; IC50 [1, 7]: 15 nM; IC50 [2, 8]: 34 nM; IC50 (Human mTOR (FLAG-TOR); IC50 mTOR): 7.7 nM"
"CCN(CC)CCOC(=O)c1ccc(NC(=O)Nc2ccc(-c3nc(N4CCOCC4)nc(N4C5CCC4COC5)n3)cc2)cc1 [Example 40, 2-(diethylamino)ethyl 4-[({4-[4-morpholin-4-yl-6-(3-oxa-8-azabicyclo[3.2.1]oct-8-yl)-1,3,5-triazin-2-yl]phenyl}carbamoyl)amino]benzoate]",–,< 30,62,–,62,0.66 nM,"IC50 [1, 9]: < 30 nM"
"COc1nc(-c2ccc(NC(=O)Nc3ccc(C(=O)NCCN4CCCCC4)cc3)cc2)nc(N2CCOCC2)n1 [Example 248, 4-({[4-(4-methoxy-6-morpholin-4-yl-1,3,5-triazin-2-yl)phenyl]carbamoyl}amino)-N-(2-piperidin-1-ylethyl)benzamide]",2,–,–,–,–,–,"IC50 [1, 7]: < 31 nM; IC50 [2, 8]: 69 nM"
"4-yl-6-(3-oxa-8-azabicyclo[3.2.1]oct-8-yl)-1,3,5-triazin-2-yl]phenyl}urea [Example 518]",0.9,–,–,6.5,–,–,"IC50 [1, 10]: 4 nM; IC50 [2, 11]: 24 nM"
"1-(4-{[4-(1-methylethyl)piperazin-1-yl]carbonyl}phenyl)-3-[4-(4-morpholin-4-yl-6-piperidin-1-yl-1,3,5-triazin-2-yl)phenyl]urea [Example 595]",–,–,–,58.5,–,–,"IC50 [1, 10]: 43 nM; IC50 [2, 11]: 193 nM"
"1-(4-(4,6-dimorpholino-1,3,5-triazin-2-yl)phenyl)-3-(4-(2-(pyridin-2-yl)acetyl)phenyl)urea [Example 78]",–,–,–,23,–,–,"IC50 ([1]; MTS cell growth assay, three days after drug treatment, read-out: IC50 MDA-MB-361): 68 nM; IC50 ([2]; MTS cell growth assay, three days after drug treatment, read-out: IC50 PC3-mm2): 31 nM"
"O=C(Nc1ccc(-c2nc(N3CCOCC3)nc(N3CCOCC3)n2)cc1)Nc1cccnc1 [Example 2, 1-[4-(4,6-dimorpholin-4-yl-1,3,5-triazin-2-yl)phenyl]-3-pyridin-3-ylurea]",–,45,43,–,–,1 nM,–
"CN(C)CCN(C)C(=O)c1ccc(NC(=O)Nc2ccc(-c3nc(N4CCC4)nc(N4CCOCC4)n3)cc2)cc1 [Example 197, 4-({[4-(4-azetidin-1-yl-6-morpholin-4-yl-1,3,5-triazin-2-yl)phenyl]carbamoyl}amino)-N-[2-(dimethylamino)ethyl]-N-methylbenzamide]",–,17,49,–,–,24 nM,–
"O=C(Nc1ccc(-c2nc(N3CCOCC3)nc(N3CCOCC3)n2)cc1)Nc1ccc(F)cc1F [Example 11, (2,4-difluorophenyl)-3-[4-(4,6-dimorpholin-4-yl-1,3,5-triazin-2-yl)phenyl]urea]",–,–,–,–,–,9.25 nM,"IC50 ([1]; Homo sapiens, MDA-MB-361, 72 h, read-out: IC50 MDA-MB-361, MTS cell growth assay, three days after drug treatment): 794 nM; IC50 ([2]; Homo sapiens, PC3MM2, 72 h, read-out: IC50 PC3-mm2, MTS cell growth assay, three days after drug treatment): 5630 nM"
"4-{[(4-{4,6-bis[(3S)-3-methylmorpholin-4-yl]-1,3,5-triazin-2-yl}phenyl)carbamoyl]amino}-N-(2-pyrrolidin-1-ylethyl)benzamide [Example 635]",22,–,–,378,–,–,"IC50 [1, 10]: 26 nM; IC50 [2, 11]: 106 nM"
"CC(O)c1ccc(NC(=O)Nc2ccc(-c3nc(N4CCOCC4)nc(N4CCOCC4)n3)cc2)cc1 (centres unmarked) [Example 52, 1-[4-(4,6-dimorpholin-4-yl-1,3,5-triazin-2-yl)phenyl]-3-[4-(1-hydroxyethyl)phenyl]urea]",–,< 30,49,–,–,1 nM,–

# From US20090304692A1, “TRIAZINE COMPOUNDS AS PI3 KINASE AND MTOR INHIBITORS” (Wyeth, priority 2008, published 2009)
